The values that follow come from US20180163179A1, “METHOD FOR IMPROVEMENT OF DRUG METABOLISM OF HUMAN STEM CELL-DERIVED HEPATOCYTES” (KOREA ADVANCED INSTITUTE OF SCIENCE AND TECHNOLOGY, priority 2015, published 2018).

Molecules are shown by their SMILES.

For series [1], the system named is human embryonic stem cell-derived hepatocytes (hES-Hep). Particulars: hES-Hep treated with alcohol (200 mM ethanol, 24 hours), without co-culture, FIG. 6.
Protocol: 2×10^5 mouse hepatic stellate cells were cultured on the plate (Corning, USA) with 8 μm holes coated with human embryonic stem cell-derived hepatocytes cultured in DMEM supplemented with 10% FBS. The cell ratio of mouse hepatic stellate cells to human embryonic stem cell-derived hepatocytes was maintained as 1:2. […] 48 hours later, the cells and the medium were collected (FIG. 4).
Human embryonic stem cell-derived hepatocytes were co-cultured with mouse hepatic stellate cells. Then, TUNEL assay was performed to investigate apoptosis therein.
Apoptosis was investigated by using In Situ Cell Death Detection Kit (Fluorescence, Roche). Nucleus of the cell was stained with DAPI, followed by visualization using Leica DMI 4000B automatic vertical microscope system (Germany) equipped with Leica EL6000 and Leica CTR 4000 CCD camera. Computer assisted images were analyzed with Leica Application Suite Advanced Fluorescence (LAS AF, Leica).
The test system is the same in series [2]. Particulars: hES-Hep treated with alcohol, real-time PCR, FIG. 3.
Series [3] has the same test system. Description: Gene expression (real time PCR) after the treatment of retinoic acid. To be noted: 1 ump all-trans retinoic acid or 9-cis-retinoic acid, culture 12~24 hours, FIG. 16. Type of series: cell-based. Here is the method: Human embryonic stem cell-derived hepatocytes were treated with retinoic acid, followed by investigation of the gene expressions of alcohol metabolism associated enzymes, drug metabolism associated enzymes, and anti-oxidant enzymes.
Particularly, the human embryonic stem cell-derived hepatocytes differentiated by the same manner as described in Example 1 were treated with 1 ump all-trans retinoic acid or 9-cis-retinoic acid, followed by culture for 12˜24 hours. Then, real time PCR was performed by the same manner as described in Experimental Example <1˜3> in order to examine the expressions of alcohol metabolism associated enzymes (AHD1a, ADH1b, ADH1c, and CYP2E1), drug metabolism associated enzymes (CYP2C9, CYP2D6, and CYP3A4), and anti-oxidant enzymes (catalase and Mn-SOD).

The test system is the same in series [4]. Description: Gene expression (real time PCR) after the treatment of retinoic acid and ethanol. Format: cell-based. To be noted: 1 ump all-trans retinoic acid and 0.2 M EtOH, culture 24 hours, FIG. 17. Here is the method:
Human embryonic stem cell-derived hepatocytes were treated with retinoic acid and ethanol, followed by investigation of the gene expressions of alcohol metabolism associated enzymes, drug metabolism associated enzymes, and anti-oxidant enzymes.
Particularly, the human embryonic stem cell-derived hepatocytes differentiated by the same manner as described in Example 1 were treated with 1 ump all-trans retinoic acid and 0.2 M EtOH, followed by culture for 24 hours. Then, real time PCR was performed by the same manner as described in Experimental Example <1-3> in order to examine the expressions of alcohol metabolism associated enzymes (AHD1a, ADH1b, ADH1c, and CYP2E1) and anti-oxidant enzymes (catalase and Mn-SOD).

The test system is the same in series [5]. Description: Immunocytochemistry (immunofluorescence) of CYP2E1 after the treatment of retinoic acid. Format: cell-based. Particulars: 1 ump all-trans retinoic acid and 0.2 M EtOH, culture 24 hours, anti-CYP2E1 antibody, FIG. 18. How it is done: Human embryonic stem cell-derived hepatocytes were treated with retinoic acid, followed by immunofluorescence in order to examine the expression of CYP2E1, the alcohol metabolism associated enzyme.
Particularly, the human embryonic stem cell-derived hepatocytes differentiated by the same manner as described in Example 1 were treated with 1 ump all-trans retinoic acid and 0.2 M EtOH, followed by culture for 24 hours. The cells were fixed with 4% paraformaldehyde. […] Blocking was performed by treating the cells with 5% goat serum at 37° C. for 1 hour. The cells were stained with anti-CYP2E1 antibody (Millipore, Germany).

On to `CCO` [alcohol, ethanol], for which, in series [1], the “apoptosis (TUNEL)” value is “increased”. Moreover, in series [2], the “expression of alcohol metabolism associated enzymes” value is “up-regulated”.

With `CC1=C(/C=C/C(C)=C/C=C/C(C)=C/C(=O)O)C(C)(C)CCC1` [retinoic acid], the “expressions of alcohol metabolism associated enzymes (AHD1a, ADH1b, ADH1c, CYP2E1), drug metabolism associated enzymes (CYP2C9, CYP2D6, CYP3A4) and anti-oxidant enzymes (catalase, Mn-SOD)” value in series [3] is “all increased”. For the same compound, in series [4], the “expressions of alcohol metabolism associated enzymes (AHD1a, ADH1b, ADH1c, CYP2E1) and anti-oxidant enzymes (catalase, Mn-SOD)” value was “all increased”. Besides, the “expression of CYP2E1 (immunofluorescence)” value in series [5] is “significantly increased”.
